Laboratory results taken from ChEMBL document CHEMBL3085632, “Subcellular localization of proflavine derivative and induction of oxidative stress--in vitro studies” (Bioorg Med Chem, 2013).
Active and inactive are the calls of the source. No cut-off for these calls is given here.

What was measured:
[1] = Drug uptake in nucleus of mouse L1210 cells by Hoechst-33342 staining-based fluorescence microscopic analysis; type: ADME, cell-based
L1210 [2] = assay: Induction of apoptosis in mouse L1210 cells assessed as DNA ladder formation at 10 to 15 uM after 8 hrs by agarose gel electrophoresis; type: functional, cell-based
L1210 [3] = assay: Induction of intracellular ROS production in mouse L1210 cells at 5 uM after 6 hrs by Dihydroethidium staining-based fluorescence assay in absence of vitamin E relative to control; type: functional
L1210 [4] = assay: Cell cycle arrest in mouse L1210 cells assessed as accumulation at sub-G0 phase at 10 uM after 5 hrs by propidium iodide staining-based flow cytometric analysis relative to control; type: functional
NIH3T3 = assay: Cytotoxicity against mouse NIH/3T3 cells assessed as cell viability after 72 hrs by MTT assay; type: cell-based; settings: NIH3T3, 72 h
[5] = Selectivity ratio of IC50 for mouse NIH/3T3 cells to IC50 for human HL60 cells; type: ADME, cell-based, HL-60; settings: NIH/3T3 cells versus HL60 cells, read-out: Ratio IC50
L1210 [6] = assay: Induction of apoptosis in mouse L1210 cells assessed as nucleosomal DNA fragmentation at 10 to 15 uM after 4 hrs by agarose gel electrophoresis; type: functional, cell-based
L1210 [7] = assay: Cytotoxicity against mouse L1210 cells assessed as cell viability at 50 uM after 24 hrs by MTT assay in presence of vitamin E; type: functional; settings: L1210, 24 h, read-out: Activity
L1210 [8] = assay: Cytotoxicity against mouse L1210 cells assessed as cell viability at 5 to 20 uM after 24 hrs by MTT assay in presence of vitamin E; type: functional, cell-based
L1210 [9] = assay: Cell cycle arrest in mouse L1210 cells assessed as accumulation at S-phase at 10 uM after 5 hrs by propidium iodide staining-based flow cytometric analysis relative to control; type: functional
L1210 [10] = assay: Induction of intracellular ROS production in mouse L1210 cells at 5 uM after 6 hrs by Dihydroethidium staining-based fluorescence assay in presence of vitamin E relative to control; type: functional, cell-based
L1210 [11] = assay: Cytotoxicity against mouse L1210 cells assessed as decrease in intracellular ATP level at 10 uM after 6 hrs by luminometric assay; type: functional; design: scale not given: the % may be the effect or the level left
[12] = Drug uptake in lysosomes of mouse L1210 cells at 4 uM after 30 mins by MDC staining-based flow cytometric analysis; type: ADME, cell-based, Lysosome; settings: l1210, 0.5 h
[13] = Drug uptake in nucleus of mouse L1210 cells at 5 uM after 1 hr by propidium iodide staining-based confocal microscopic analysis; type: ADME, cell-based; settings: l1210, 1 h
L1210 [14] = assay: Cytotoxicity against mouse L1210 cells assessed as intracellular ATP level at 5 to 10 uM after 6 hrs by luminometric assay in presence of vitamin E; type: functional, cell-based
[15] = Selectivity ratio of IC50 for mouse NIH/3T3 cells to IC50 for mouse L1210 cells; type: ADME, cell-based; settings: NIH/3T3 cells versus L1210 cells, read-out: Ratio IC50
[16] = Drug uptake in mitochondria of mouse L1210 cells at 4 uM after 0.5 to 24 hrs by MitoRed staining-based flow cytometric analysis; type: ADME; settings: l1210, 4 µM

Drug uptake [1]: Not Active | Drug uptake [12]: Not Active | Drug uptake [13]: Not Active | Drug uptake [16]: Active
Compound: CCCCCCN1C(=O)CN/C1=N\c1ccc2cc3ccc(/N=C4\NCC(=O)N4CCCCCC)cc3nc2c1.Cl
Activity (L1210 [2]): Active | fold change (FC) (L1210 [3]): 4 | Activity (L1210 [4]): 17.7% | IC50 (NIH3T3): 18.6 µM | selectivity ratio [5]: 4 | Activity (L1210 [6]): inactive | viability at 50 µM (L1210 [7]): 80% | Activity (L1210 [8]): Active | Activity (L1210 [9]): Active | Activity (L1210 [10]): inactive | Activity (L1210 [11]): 50% | Activity (L1210 [14]): inactive | selectivity ratio [15]: 4
